Assay results published in the NIST ThermoML archive (doi:10.1016/j.jct.2008.01.009).
Numbers after ± are expanded uncertainties.

Assay: molar heat capacity at saturation pressure

C1=Cc2ccccc2CC1 [1,2-dihydronaphthalene]
molar heat capacity (5.476 K, Crystal 3, Vacuum adiabatic calorimetry): 0.37 ± 0.02 J/K/mol | molar heat capacity (6.388 K, Crystal 3, Vacuum adiabatic calorimetry): 0.64 ± 0.02 J/K/mol | molar heat capacity (7.291 K, Crystal 3, Vacuum adiabatic calorimetry): 0.989 ± 0.02 J/K/mol | molar heat capacity (8.25 K, Crystal 3, Vacuum adiabatic calorimetry): 1.48 ± 0.02 J/K/mol | molar heat capacity (9.249 K, Crystal 3, Vacuum adiabatic calorimetry): 2.12 ± 0.03 J/K/mol | molar heat capacity (10.3 K, Crystal 3, Vacuum adiabatic calorimetry): 2.94 ± 0.03 J/K/mol | molar heat capacity (11.47 K, Crystal 3, Vacuum adiabatic calorimetry): 3.91 ± 0.04 J/K/mol | molar heat capacity (12.77 K, Crystal 3, Vacuum adiabatic calorimetry): 5.18 ± 0.05 J/K/mol | molar heat capacity (14.21 K, Crystal 3, Vacuum adiabatic calorimetry): 6.67 ± 0.06 J/K/mol | molar heat capacity (15.81 K, Crystal 3, Vacuum adiabatic calorimetry): 8.431 ± 0.07 J/K/mol | molar heat capacity (17.59 K, Crystal 3, Vacuum adiabatic calorimetry): 10.49 ± 0.07 J/K/mol | molar heat capacity (19.57 K, Crystal 3, Vacuum adiabatic calorimetry): 12.77 ± 0.083 J/K/mol | molar heat capacity (21.76 K, Crystal 3, Vacuum adiabatic calorimetry): 15.28 ± 0.091 J/K/mol | molar heat capacity (24.19 K, Crystal 3, Vacuum adiabatic calorimetry): 18 ± 0.1 J/K/mol | molar heat capacity (26.87 K, Crystal 3, Vacuum adiabatic calorimetry): 20.93 ± 0.1 J/K/mol | molar heat capacity (29.83 K, Crystal 3, Vacuum adiabatic calorimetry): 23.95 ± 0.091 J/K/mol | molar heat capacity (33.12 K, Crystal 3, Vacuum adiabatic calorimetry): 27.11 ± 0.1 J/K/mol | molar heat capacity (36.82 K, Crystal 3, Vacuum adiabatic calorimetry): 30.48 ± 0.1 J/K/mol | molar heat capacity (40.93 K, Crystal 3, Vacuum adiabatic calorimetry): 33.95 ± 0.11 J/K/mol | molar heat capacity (45.51 K, Crystal 3, Vacuum adiabatic calorimetry): 37.56 ± 0.12 J/K/mol | molar heat capacity (50.62 K, Crystal 3, Vacuum adiabatic calorimetry): 41.31 ± 0.12 J/K/mol | molar heat capacity (55.37 K, Crystal 3, Vacuum adiabatic calorimetry): 44.29 ± 0.13 J/K/mol | molar heat capacity (56.32 K, Crystal 3, Vacuum adiabatic calorimetry): 44.86 ± 0.13 J/K/mol | molar heat capacity (60.82 K, Crystal 3, Vacuum adiabatic calorimetry): 47.66 ± 0.13 J/K/mol | molar heat capacity (66.99 K, Crystal 3, Vacuum adiabatic calorimetry): 51.14 ± 0.14 J/K/mol | molar heat capacity (73.79 K, Crystal 3, Vacuum adiabatic calorimetry): 54.73 ± 0.15 J/K/mol | molar heat capacity (81.31 K, Crystal 3, Vacuum adiabatic calorimetry): 58.53 ± 0.16 J/K/mol | molar heat capacity (89.62 K, Crystal 3, Vacuum adiabatic calorimetry): 62.62 ± 0.17 J/K/mol | molar heat capacity (92.5 K, Crystal 3, Vacuum adiabatic calorimetry): 64 ± 0.27 J/K/mol | molar heat capacity (98.63 K, Crystal 3, Vacuum adiabatic calorimetry): 66.92 ± 0.27 J/K/mol | molar heat capacity (101.72 K, Crystal 3, Vacuum adiabatic calorimetry): 68.45 ± 0.27 J/K/mol | molar heat capacity (108.13 K, Crystal 3, Vacuum adiabatic calorimetry): 71.57 ± 0.27 J/K/mol | molar heat capacity (111.45 K, Crystal 3, Vacuum adiabatic calorimetry): 73.19 ± 0.27 J/K/mol | molar heat capacity (116.48 K, Crystal 3, Vacuum adiabatic calorimetry): 75.72 ± 0.27 J/K/mol | molar heat capacity (121.2 K, Crystal 3, Vacuum adiabatic calorimetry): 78.05 ± 0.27 J/K/mol | molar heat capacity (122.5 K, Crystal 3, Vacuum adiabatic calorimetry): 78.89 ± 0.28 J/K/mol | molar heat capacity (127.59 K, Crystal 3, Vacuum adiabatic calorimetry): 81.65 ± 0.28 J/K/mol | molar heat capacity (129.07 K, Crystal 3, Vacuum adiabatic calorimetry): 82.45 ± 0.28 J/K/mol | molar heat capacity (132.84 K, Crystal 3, Vacuum adiabatic calorimetry): 84.88 ± 0.28 J/K/mol | molar heat capacity (138.14 K, Crystal 3, Vacuum adiabatic calorimetry): 89.05 ± 0.29 J/K/mol | molar heat capacity (143.36 K, Crystal 3, Vacuum adiabatic calorimetry): 92.96 ± 0.29 J/K/mol | molar heat capacity (148.64 K, Crystal 2): 97.43 ± 0.6 J/K/mol | molar heat capacity (153.85 K, Crystal 2): 100.66 ± 0.6 J/K/mol | molar heat capacity (159.03 K, Crystal 2): 103.99 ± 0.61 J/K/mol | molar heat capacity (164.19 K, Crystal 2): 106.64 ± 0.61 J/K/mol | molar heat capacity (169.6 K, Crystal 2): 109.63 ± 0.61 J/K/mol | molar heat capacity (171.24 K, Crystal 2): 110.54 ± 0.62 J/K/mol | molar heat capacity (175.29 K, Crystal 2): 112.56 ± 0.62 J/K/mol | molar heat capacity (178.78 K, Crystal 2): 114.67 ± 0.63 J/K/mol | molar heat capacity (180.37 K, Crystal 2): 115.57 ± 0.63 J/K/mol | molar heat capacity (180.88 K, Crystal 2): 115.84 ± 0.63 J/K/mol | molar heat capacity (186.07 K, Crystal 2): 118.77 ± 0.64 J/K/mol | molar heat capacity (186.76 K, Crystal 2): 119.11 ± 0.64 J/K/mol | molar heat capacity (187.6 K, Crystal 2): 120.08 ± 0.64 J/K/mol | molar heat capacity (192.71 K, Crystal 2): 124.28 ± 0.65 J/K/mol | molar heat capacity (192.99 K, Crystal 2): 123.59 ± 0.65 J/K/mol | molar heat capacity (197.84 K, Crystal 1, Small (less than 1 g) adiabatic calorimetry): 128.42 ± 0.71 J/K/mol | molar heat capacity (199.44 K, Crystal 1, Small (less than 1 g) adiabatic calorimetry): 129.23 ± 0.71 J/K/mol | molar heat capacity (202.96 K, Crystal 1, Small (less than 1 g) adiabatic calorimetry): 130.85 ± 0.72 J/K/mol | molar heat capacity (206.23 K, Crystal 1, Small (less than 1 g) adiabatic calorimetry): 132.6 ± 0.73 J/K/mol | molar heat capacity (208.77 K, Crystal 1, Small (less than 1 g) adiabatic calorimetry): 134.08 ± 0.74 J/K/mol | molar heat capacity (213.6 K, Crystal 1, Small (less than 1 g) adiabatic calorimetry): 137.01 ± 0.75 J/K/mol | molar heat capacity (215.96 K, Crystal 1, Small (less than 1 g) adiabatic calorimetry): 138.43 ± 0.76 J/K/mol | molar heat capacity (219.37 K, Crystal 1, Small (less than 1 g) adiabatic calorimetry): 140.75 ± 0.77 J/K/mol | molar heat capacity (230.97 K, Crystal 1, Small (less than 1 g) adiabatic calorimetry): 148.65 ± 0.8 J/K/mol | molar heat capacity (238.26 K, Crystal 1, Small (less than 1 g) adiabatic calorimetry): 153.96 ± 0.81 J/K/mol | molar heat capacity (243.92 K, Crystal 1, Small (less than 1 g) adiabatic calorimetry): 158.36 ± 0.83 J/K/mol | molar heat capacity (252.96 K, Crystal 1, Small (less than 1 g) adiabatic calorimetry): 166.39 ± 0.86 J/K/mol | molar heat capacity (255.1 K, Crystal 1, Small (less than 1 g) adiabatic calorimetry): 168.26 ± 0.87 J/K/mol | molar heat capacity (271.21 K, Liquid, Small (less than 1 g) adiabatic calorimetry): 199.33 ± 1 J/K/mol | molar heat capacity (272.18 K, Liquid, Small (less than 1 g) adiabatic calorimetry): 199.68 ± 1 J/K/mol | molar heat capacity (272.24 K, Liquid, Small (less than 1 g) adiabatic calorimetry): 199.7 ± 1 J/K/mol | molar heat capacity (280.33 K, Liquid, Small (less than 1 g) adiabatic calorimetry): 202.71 ± 1 J/K/mol | molar heat capacity (288.36 K, Liquid, Small (less than 1 g) adiabatic calorimetry): 205.77 ± 1 J/K/mol | molar heat capacity (291.65 K, Liquid, Small (less than 1 g) adiabatic calorimetry): 207.11 ± 1 J/K/mol | molar heat capacity (303.09 K, Liquid, Small (less than 1 g) adiabatic calorimetry): 211.59 ± 1 J/K/mol | molar heat capacity (318.19 K, Liquid, Small (less than 1 g) adiabatic calorimetry): 217.77 ± 1.1 J/K/mol | molar heat capacity (333.27 K, Liquid, Small (less than 1 g) adiabatic calorimetry): 224.04 ± 1.1 J/K/mol | molar heat capacity (348.76 K, Liquid, Small (less than 1 g) adiabatic calorimetry): 230.58 ± 1.1 J/K/mol | molar heat capacity (364.66 K, Liquid, Small (less than 1 g) adiabatic calorimetry): 237.34 ± 1.1 J/K/mol | molar heat capacity (380.18 K, Liquid, Small (less than 1 g) adiabatic calorimetry): 243.96 ± 1.2 J/K/mol | molar heat capacity (395.44 K, Liquid, Small (less than 1 g) adiabatic calorimetry): 250.46 ± 1.2 J/K/mol
